Values joined by “and” are separate entries in the source; they are usually repeats but may differ in a detail not shown here. Equal entries are not always repeated. “Also recorded” adds a separate entry of the source.
Legend:
[1] = test system: patients with rheumatoid arthritis (RA); assay: Multicenter, randomized, double-blind, placebo-controlled study of D2E7 40 mg sc every other week added to current anti-rheumatic therapies: efficacy (ACR response); type: in vivo, human
Protocol: (§1) A study was designed and conducted to investigate the safety and efficacy of D2E7 40 mg administered every other week to patients with RA whose disease was not adequately treated with their current anti-rheumatic therapies (including accepted DMARDs, NSAIDs, or steroids); and was a multicenter, randomized, double-blind, placebo-controlled study in which D2E7 was subcutaneously (sc) administered every other week for up to 24 weeks at a dosage of 40 mg to patients with rheumatoid arthritis (RA) whose disease was not adequately treated with their current anti-rheumatic therapies. Anti-rheumatic therapies permitted for use during the study included accepted disease-modifying anti-rheumatic drugs (DMARDs), non-steroidal anti-inflammatory drugs (NSAIDs), or steroids. Despite using anti-rheumatic therapies, patients must have had active disease documented at both the screening and baseline visits. Doses of DMARDs, as well as concomitant prednisone (<10 mg daily) and NSAIDs, were required to be stable for at least 28 days prior to screening. Additionally, patients using azathioprine and/or cyclosporine discontinued these therapies and underwent a 28-day washout period before screening. At the baseline visit, patients were randomized to D2E7 or placebo and this signified the start of the 24-week placebo-controlled period. Patients were examined at Weeks 2, 4, 8, 12, 16, 20 and 24 of the study.
Patients were inadequately treated with their current anti-rheumatic therapies and had active RA, defined as ≧6 swollen joints and ≧9 tender joints. Additionally, patients using glucocorticoids were allowed into the study if the dose was equivalent to <10 mg/day prednisone and had remained unchanged for at least 28 days.
D2E7 was supplied in 2-mL glass vials (the concentration of D2E7 in each vial was 25 mg/mL (ie, 40 mg/1.6 mL)), each containing 40 mg D2E7/1.6 mL solution for injection. D2E7 was manufactured and supplied by Ebewe Arzneimittel GmbH, in Unterach, Austria. McKesson, HBOC Biosciences, in Rockville, Md., USA, packaged, labeled, stored and distributed D2E7 to the investigators at each site for this study. D2E7 was self-administered as a single sc injection of 40 mg every other week for a period of 24 weeks. The concentration of study drug was 25 mg/mL. Placebo/1.6 mL (citrate-phosphate buffer solution without D2E7) was self-administered as a single sc injection every other week for a period of 24 weeks.
Patients continued to receive their pre-study dose of anti-rheumatic therapies. Anti-rheumatic therapies permitted for use during the study included DMARDs (hydroxychloroquine, leflunomide, methotrexate, parenteral gold, oral gold and sulfasalazine, or any combination of these or other DMARDs), NSAIDs and steroids. Doses of these DMARDs as well as concomitant prednisone (<10 mg daily) and NSAIDs must have been stable for at least 28 days prior to screening.
Efficacy endpoints included: ACR20 response at Week 24; ACR50 and ACR70 at Week 24; AUC (area under the curve) of ACR20, ACR50 and ACR70 from baseline to Week 24; time to first response for ACR20, ACR50 and ACR70; numeric ACR (ACR—N); change from baseline to Week 24 in components of the ACR response criteria (tender joint count [TJC], swollen joint count [SJC], patient assessment of pain, patient and physician global assessments of disease activity, HAQ and C-reactive protein [CRP]); change from baseline to Week 24 in physical function as measured by SF-36, health utilities index (HUI), functional assessment of chronic illness therapy (FACIT) fatigue scale; Euro-QoL questionnaire; multidimensional assessment of fatigue (MAF) scale; subject summary survey; incidence and time to dose increases in background DMARD and/or steroid therapy; institution of new DMARD therapy for lack of clinical response; rheumatoid factor (RF); and morning stiffness.
Adverse events were summarized by frequency, percentage, as well as the rate per 100 patient-years. […]

[2] = test system: patients with rheumatoid arthritis (RA); assay: Same RA study: safety / adverse events; type: in vivo, human
Protocol: as §1, with “Additionally, patients using azathioprine and/or cyclosporine discontinued these therapies and underwent a 28-day washout period before screening. At the baseline visit, patients were randomized to D2E7 or placebo and this signified the start of the 24-week placebo-controlled period. Patients were examined at Weeks 2, 4, 8, 12, 16, 20 and 24 of the study.” left out
Adverse events were summarized by frequency, percentage, as well as the rate per 100 patient-years. […] All other efficacy variables were summarized descriptively (statistical characteristics, frequencies, percentages, confidence intervals) and analyzed by exploratory two-sided statistical tests. […]

[3] = Week 2, full analysis set, excluding Site #7
[4] = Week 4, full analysis set, excluding Site #7
[5] = Week 8, full analysis set, excluding Site #7
[6] = Week 12, full analysis set, excluding Site #7
[7] = Week 16, full analysis set, excluding Site #7
[8] = Week 20, full analysis set, excluding Site #7
[9] = Week 24, full analysis set, excluding Site #7
[10] = Week 24, subgroup Three or more DMARDs
[11] = Week 24, subgroup concomitant Antimalarial
[12] = Week 24, subgroup concomitant Leflunomide
[13] = Week 24, subgroup concomitant Methotrexate
[14] = Week 24, subgroup concomitant Sulfasalazine
[15] = through Week 24, full analysis set, excluding Site #7

D2E7: recombinant, neutralizing human anti-hTNFα antibody; VL region SEQ ID NO: 1, VH region SEQ ID NO: 2
ACR50 response, patients responding ([1]; LOCF Week 24, N = 315): 95 (30.2) N (%)
ACR70 response, patients responding ([1]; LOCF Week 24, N = 315): 48 (15.2) N (%)
ACR-N, Mean ± SD ([1]; LOCF Week 24, N = 315): 21.2 ± 55.3
Time to response ACR20: patients responding for the first time [1, 3]: 106 (33.7) N (%)
Time to response ACR50: patients responding for the first time [1, 3]: 31 (9.8) N (%)
Time to response ACR70: patients responding for the first time [1, 3]: 9 (2.9) N (%)
Time to response ACR20: patients responding for the first time [1, 4]: 51 (16.2) N (%)
Time to response ACR50: patients responding for the first time [1, 4]: 31 (9.8) N (%)
Time to response ACR70: patients responding for the first time [1, 4]: 12 (3.8) N (%)
Time to response ACR20: patients responding for the first time [1, 5]: 52 (16.5) N (%)
Time to response ACR50: patients responding for the first time [1, 5]: 34 (10.8) N (%)
Time to response ACR70: patients responding for the first time [1, 5]: 12 (3.8) N (%)
Time to response ACR20: patients responding for the first time [1, 6]: 17 (5.4) N (%)
Time to response ACR50: patients responding for the first time [1, 6]: 20 (6.3) N (%)
Time to response ACR70: patients responding for the first time [1, 6]: 18 (5.7) N (%)
Time to response ACR20: patients responding for the first time [1, 7]: 13 (4.1) N (%)
Time to response ACR50: patients responding for the first time [1, 7]: 20 (6.3) N (%)
Time to response ACR70: patients responding for the first time [1, 7]: 18 (5.7) N (%)
Time to response ACR20: patients responding for the first time [1, 8]: 12 (3.8) N (%)
Time to response ACR50: patients responding for the first time [1, 8]: 9 (2.9) N (%)
Time to response ACR70: patients responding for the first time [1, 8]: 7 (2.2) N (%)
ACR20 response, patients responding ([1]; Week 24, 40 mg sc every other week, N = 315): 167 (53.0) N (%)
ACR20 response (primary efficacy endpoint) ([1]; Week 24, D2E7 added to current anti-rheumatic therapies): 53.0%
ACR50 response, patients responding ([1]; Week 24, N = 315): 92 (29.2) N (%) and 92 (29.2)^a N (%)
ACR70 response, patients responding ([1]; Week 24, N = 315): 47 (14.9) N (%) and 47 (14.9)^a N (%)
ACR-N, Mean ± SD ([1]; Week 24, N = 315): 20.3 ± 55.2
Time to response ACR20: patients responding for the first time [1, 9]: 3 (1.0) N (%)
Time to response ACR50: patients responding for the first time [1, 9]: 10 (3.2) N (%)
Time to response ACR70: patients responding for the first time [1, 9]: 8 (2.5) N (%)
ACR20 % Response ([1]; Week 24, subgroup No DMARD): 50.0%
ACR50 response ([1]; Week 24, subgroup No DMARD): 27.8%
ACR70 response ([1]; Week 24, subgroup No DMARD): 18.5%
ACR-N, Mean ± SD ([1]; Week 24, subgroup No DMARD): 12.8 ± 68.2
ACR20 % Response ([1]; Week 24, subgroup One DMARD): 55.4%
ACR50 response ([1]; Week 24, subgroup One DMARD): 31.0%
ACR70 response ([1]; Week 24, subgroup One DMARD): 16.3%
ACR-N, Mean ± SD ([1]; Week 24, subgroup One DMARD): 22.8 ± 56.0
ACR20 % Response ([1]; Week 24, subgroup Other DMARDs): 52.0%
ACR50 response ([1]; Week 24, subgroup Other DMARDs): 24.0%
ACR70 response ([1]; Week 24, subgroup Other DMARDs): 16.0%
ACR-N, Mean ± SD ([1]; Week 24, subgroup Other DMARDs): 25.3 ± 33.9
ACR20 % Response [1, 10]: 45.5%
ACR50 response [1, 10]: 18.2%
ACR70 response [1, 10]: 9.1%
ACR-N, Mean ± SD [1, 10]: 20.1 ± 37.2
ACR20 % Response ([1]; Week 24, subgroup Two DMARDs): 50.0%
ACR50 response ([1]; Week 24, subgroup Two DMARDs): 27.3%
ACR70 response ([1]; Week 24, subgroup Two DMARDs): 9.1%
ACR-N, Mean ± SD ([1]; Week 24, subgroup Two DMARDs): 19.5 ± 42.3
ACR20 % Response [1, 11]: 50.7%
ACR50 response [1, 11]: 29.3%
ACR70 response [1, 11]: 12.0%
ACR-N, Mean ± SD [1, 11]: 20.0 ± 45.5
ACR20 % Response [1, 12]: 33.3%
ACR50 response [1, 12]: 14.3%
ACR70 response [1, 12]: 0.0%
ACR-N, Mean ± SD [1, 12]: −0.5 ± 77.5
ACR20 % Response [1, 13]: 56.7%
ACR50 response [1, 13]: 30.9%
ACR70 response [1, 13]: 15.2%
ACR-N, Mean ± SD [1, 13]: 26.5 ± 42.3
ACR20 % Response [1, 14]: 58.6%
ACR50 response [1, 14]: 34.5%
ACR70 response [1, 14]: 17.2%
ACR-N, Mean ± SD [1, 14]: 21.4 ± 53.9
Subgroup analyses of ACR20, ACR50, ACR70, ACR-N and their AUC ([1]; concomitant methotrexate, antimalarials, sulfasalazine, other DMARDs, or 0, 1, 2, ≧3 DMARDs, vs placebo): greater improvement; also recorded: higher response compared to placebo
Improvement in RA in patients inadequately treated with existing DMARD therapies ([1]; in vivo): significant improvement
Time to response ACR20: Non-responder [1, 15]: 61 (19.4) N (%)
Time to response ACR50: Non-responder [1, 15]: 160 (50.8) N (%)
Time to response ACR70: Non-responder [1, 15]: 231 (73.3) N (%)
Time to response and AUC for ACR20, ACR50, ACR70; AUC for ACR-N; Euro-QoL, RF, MAF scale ([1]; vs placebo): improvement in therapeutic response over placebo
Tolerability when added to existing DMARD therapies ([2]; 40 mg sc every other week, up to 24 weeks): generally well-tolerated
Safety alone or in combination with other DMARDs ([2]; dose of 40 mg): safe

Source: patent publication US20030206898A1, “Use of anti-TNFalpha antibodies and another drug” (priority 2002, published 2003)
